In patent publication US12435061B2 (priority 2020, dated 2025):
In brackets after ≈: the same amount, converted by molar mass. Where two headings read alike, the source gives them in different places.

Columns and labels:
hTRPV3 = hTRPV3 (Homo sapiens (Human), UniProt Q8NET8); assay: Whole-cell patch clamp, hTRPV3 Phase 1 / Phase 2 currents; assay type: cell-based
In short: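 Whole-cell recordings on induced TRPV3 cells replated on coverslips, held at −40 mV with 400 ms ramps from −120 to +100 mV every 5 s; currents read at −80 and +80 mV. Ringer's external solution; current activated by heating to ≥28 °C or 20 μM 2-APB.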

[1] = Aqueous solubility assay in Normal Ringer Solution; details: Normal Ringer Solution; for solubility at 40 min: saline or isotonic, kinetic from dmso stock; for Solubility Ringer (nM): room temperature
Procedure: Following vortex and incubation for a sufficient time (e.g. 40 minutes at room temperature), solutions were filtered, quenched with acetonitrile, and analyzed by Liquid Chromotography. Solubility Limits were determined by comparison to a standard curve.

[2] = Metabolic Stability assay, rat liver microsomes; assay type: in vitro ADME
Procedure: Metabolic Stability assay: The metabolic stability was determined by adding compound dissolved in DMSO to human or rat, liver microsomes. Briefly, assays were run with a starting concentration of 1 μM test article. The reaction was started by addition of NADPH regeneration components at 37° C. at which time an aliquot was immediately quenched in ice-cold acetonitrile/MeOH/H2O solution. Reaction mixture was incubated at 37° C. on a shaker, and additional aliquots were taken at 7, 15, 30 and 60 minutes. Following quench and centrifugation, samples were analyzed on HPLC/MS/MS.

[3] = Phase 1 current, inward, whole-cell patch clamp, read-out: hTRPV3 Patch P1 Inwd
[4] = Phase 1 current, read-out: hTRPV3 (nM) (Phase 1)
[5] = Phase 2 current, inward, whole-cell patch clamp, read-out: hTRPV3 Patch P2 Inwd
[6] = Phase 2 current, read-out: hTRPV3 (nM) (Phase 2)
[7] = Phase 1 current, human TRPV3, read-out: hTRPV3 (nM) Phase 1

Chain of hTRPV3 (Q8NET8 whole entry): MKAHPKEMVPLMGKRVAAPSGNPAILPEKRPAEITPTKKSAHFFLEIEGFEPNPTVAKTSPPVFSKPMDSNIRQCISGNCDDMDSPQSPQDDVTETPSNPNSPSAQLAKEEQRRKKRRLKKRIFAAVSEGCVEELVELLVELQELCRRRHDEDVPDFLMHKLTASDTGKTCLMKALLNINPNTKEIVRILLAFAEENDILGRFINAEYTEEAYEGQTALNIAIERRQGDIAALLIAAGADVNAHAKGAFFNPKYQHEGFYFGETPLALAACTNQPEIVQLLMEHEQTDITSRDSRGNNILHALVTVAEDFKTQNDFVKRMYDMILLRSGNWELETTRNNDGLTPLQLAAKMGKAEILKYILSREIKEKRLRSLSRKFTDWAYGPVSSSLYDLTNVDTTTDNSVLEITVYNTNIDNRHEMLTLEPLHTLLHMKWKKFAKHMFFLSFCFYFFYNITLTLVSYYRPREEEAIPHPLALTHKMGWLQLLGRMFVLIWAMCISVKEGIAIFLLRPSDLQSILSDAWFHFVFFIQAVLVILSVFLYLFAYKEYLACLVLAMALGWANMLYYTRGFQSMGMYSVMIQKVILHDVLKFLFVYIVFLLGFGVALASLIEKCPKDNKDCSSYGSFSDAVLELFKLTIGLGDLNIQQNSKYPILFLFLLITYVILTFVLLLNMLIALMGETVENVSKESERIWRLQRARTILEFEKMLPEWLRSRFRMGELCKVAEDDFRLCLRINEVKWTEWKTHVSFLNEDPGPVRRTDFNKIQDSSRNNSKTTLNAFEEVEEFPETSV

Compound	IC50 (hTRPV3; [3]) [nM]	IC50 (hTRPV3; [4]) [nM]	IC50 (hTRPV3; [5]) [nM]	IC50 (hTRPV3; [6]) [nM]	solubility at 40 min [1] [µM]	Solubility Ringer (nM) [1]	half-life at 1 μM ([2]; read-out: LM T1/2 (min) (rat))	IC50 (hTRPV3; [7]) [nM]	half-life at 1 μM ([2]; read-out: LM T1/2 (min) rat) [min]
CN(C)C(=O)c1ccccc1-c1ccc(N2CC[C@H](Oc3ccc(C(F)(F)F)cn3)C2)c(CO)c1 [Compound 1-167, (S)-3′-(hydroxymethyl)-N,N-dimethyl-4′-(3-(5-(trifluoromethyl)pyridin-2-yloxy)pyrrolidin-1-yl)biphenyl-2-carboxamide]	> 1000	~1290	> 1000	> 3200	> 12.6	–	–	–	–
CC(O)c1ccccc1-c1ccc(N2CC[C@H](Oc3ccc(C(F)(F)F)cn3)C2)c(CO)c1 (stereo partly drawn) [Compound 1-171, 1-(3′-(hydroxymethyl)-4′-((S)-3-(5-(trifluoromethyl)pyridin-2-yloxy)pyrrolidin-1-yl)biphenyl-2-yl)ethanol]	100 to 1000	740	100 to 1000	636	> 5.35	–	–	–	–
OCc1ccccc1-c1ccc(N2CC[C@H](Oc3ccc(C(F)(F)F)cn3)C2)c(CO)c1 [Compound 1-174, (S)-(4′-(3-(5-(trifluoromethyl)pyridin-2-yloxy)pyrrolidin-1-yl)biphenyl-2,3′-diyl)dimethanol]	100 to 1000	> 320	> 1000	> 3200	> 0.67	–	–	–	–
OC[C@@H]1C[C@@H](Oc2ccc(C(F)(F)F)cn2)CN1c1ccc(-c2ccccc2)cc1 [Compound 1-175]	> 1000	> 3200	> 1000	> 3200	~0.68 (≈ 0.282 µg/mL)	–	–	–	–
N#Cc1ccccc1-c1ccc(N2CC[C@H](Oc3ccc(C(F)(F)F)cn3)C2)c(CO)n1 [Compound 1-197, (S)-2-(6-(hydroxymethyl)-5-(3-(5-(trifluoromethyl)pyridin-2-yloxy)pyrrolidin-1-yl)pyridin-2-yl)benzonitrile]	10 to 100	~38.5	–	–	~0.4 (≈ 0.176 µg/mL)	–	–	–	–
Cc1ccc(O[C@H]2CCN(c3ccc(Oc4ccccc4C)nc3CO)C2)nc1 [Compound 1-203, (S)-(3-(3-(5-methylpyridin-2-yloxy)pyrrolidin-1-yl)-6-(o-tolyloxy)pyridin-2-yl)methanol]	> 1000	~5050	> 1000	3270	~1.4 (≈ 0.548 µg/mL)	–	–	–	–
CCc1ccccc1-c1ccc(N2CC[C@H](Oc3ncccc3F)C2)c(CO)n1 [Compound 1-204, (S)-(6-(2-ethylphenyl)-3-(3-(3-fluoropyridin-2-yloxy)pyrrolidin-1-yl)pyridin-2-yl)methanol]	> 1000	2670	–	–	> 1.8	–	–	–	–
COc1ccccc1-c1ccc(N2CC[C@H](Oc3ccc(F)cn3)C2)c(CO)n1 [Compound 1-209, (S)-(3-(3-(5-fluoropyridin-2-yloxy)pyrrolidin-1-yl)-6-(2-methoxyphenyl)pyridin-2-yl)methanol]	> 1000	3470	–	–	~2.3 (≈ 0.909 µg/mL)	–	–	–	–
OCc1cc(Oc2cccc(Cl)c2)ccc1N1CC[C@H](Oc2ncccc2Cl)C1 [Compound 1-248, (S)-(5-(3-chlorophenoxy)-2-(3-(3-chloropyridin-2-yloxy)pyrrolidin-1-yl)phenyl)methanol]	10 to 100	12.3	–	–	–	BLQ	–	–	–
OCc1cc(Oc2ccc(Cl)cc2)ccc1N1CC[C@H](Oc2ncccc2Cl)C1 [Compound 1-249, (S)-(5-(4-chlorophenoxy)-2-(3-(3-chloropyridin-2-yloxy)pyrrolidin-1-yl)phenyl)methanol]	10 to 100	22.1	–	–	–	BLQ	–	–	–
Cc1ccc(Oc2ccc(N3CC[C@H](Oc4ncccc4Cl)C3)c(CO)c2)cc1 [Compound 1-250, (S)-(2-(3-(3-chloropyridin-2-yloxy)pyrrolidin-1-yl)-5-(p-tolyloxy)phenyl)methanol]	< 10	8.42	–	–	~0.1 (≈ 0.0411 µg/mL)	–	–	–	–
CCc1ccccc1C(O)c1ccc(N2CC[C@H](Oc3ncccc3Cl)C2)c(CO)c1 (stereo partly drawn) [Compound 1-257, (4-((S)-3-(3-chloropyridin-2-yloxy)pyrrolidin-1-yl)-3-(hydroxymethyl)phenyl)(2-ethylphenyl)methanol]	100 to 1000	1060	> 1000	1110	> 6.6	–	–	–	–
CC(C)(C)OC(=O)N1CC=C(c2ccc(N3CC[C@H](Oc4ccc(C(F)(F)F)cn4)C3)c(CO)c2)CC1 [Compound 1-272, (S)-tert-butyl 4-(3-(hydroxymethyl)-4-(3-(5-(trifluoromethyl)pyridin-2-yloxy)pyrrolidin-1-yl)phenyl)-5,6-dihydropyridine-1 (2H)-carboxylate]	> 1000	> 3200	–	–	–	BLQ	–	–	–
CC(C)(C)OC(=O)N1CCC(c2ccc(N3CC[C@H](Oc4ccc(C(F)(F)F)cn4)C3)c(CO)c2)CC1 [Compound 1-273, (S)-tert-butyl 4-(3-(hydroxymethyl)-4-(3-(5-(trifluoromethyl)pyridin-2-yloxy)pyrrolidin-1-yl)phenyl)piperidine-1-carboxylate]	> 1000	> 3200	–	–	–	BLQ	–	–	–
OCc1cc(-c2ccccc2)ccc1N1CC[C@H](Oc2ccccn2)C1 [Compound 1-274]	100 to 1000	241	–	–	~5.5 (≈ 1.91 µg/mL)	–	–	–	–
OCc1cc([C@H](O)c2ccccc2Cl)ccc1N1CC[C@H](Oc2ncccc2F)C1 [Compound 1-322, (2-chlorophenyl)(4-((S)-3-(3-fluoropyridin-2-yloxy)pyrrolidin-1-yl)-3-(hydroxymethyl)phenyl)methanol]	100 to 1000	794	–	–	> 9.3	–	–	–	–
CCc1cc(F)ccc1Oc1ccc(N2CC[C@H](Oc3ccccn3)C2)c(CO)c1 [Compound 1-330]	10 to 100	49.5	10 to 100	56.6	–	–	24.8	–	–
COc1ccccc1Oc1ccc(N2CC[C@H](Oc3ncccc3C)C2)c(CO)c1 [Compound 1-340, (S)-(5-(2-methoxyphenoxy)-2-(3-(3-methylpyridin-2-yloxy)pyrrolidin-1-yl)phenyl)methanol]	10 to 100	70.1	10 to 100	74.4	~2.4 (≈ 0.976 µg/mL)	–	–	–	–
OCc1cc(Oc2ccccc2)ccc1N1CC[C@H](Nc2ncccc2Cl)C1 [Compound 1-381, (S)-(2-(3-(3-chloropyridin-2-ylamino)pyrrolidin-1-yl)-5-phenoxyphenyl)methanol]	10 to 100	23.3	–	–	> 1.6	–	–	–	–
OCc1cc(Oc2ccccc2Cl)ccc1N1CC[C@H](Nc2ncccc2Cl)C1 [Compound 1-382, (S)-(5-(2-chlorophenoxy)-2-(3-(3-chloropyridin-2-ylamino)pyrrolidin-1-yl)phenyl)methanol]	10 to 100	30.9	–	–	0.5 (≈ 0.215 µg/mL)	–	–	–	–
OCc1cc(-c2ccccc2)ccc1N1CC[C@H](Nc2nc(C(F)(F)F)cs2)C1 [Compound 1-394, (S)-(4-(3-(4-(trifluoromethyl)thiazol-2-ylamino)pyrrolidin-1-yl)biphenyl-3-yl)methanol]	100 to 1000	616	100 to 1000	496	1.87 (≈ 0.784 µg/mL)	–	–	–	–
OCc1cc(-c2ccccc2)ccc1N1CC[C@H](Oc2nc(C(F)(F)F)cs2)C1 [Compound 1-395, (S)-(4-(3-(4-(trifluoromethyl)thiazol-2-yloxy)pyrrolidin-1-yl)biphenyl-3-yl)methanol]	> 1000	> 3200	> 1000	> 3200	–	BLQ	–	–	–
CC(C)c1ccccc1Oc1ccc(C2CCN(C(=O)c3ccc(Cl)cn3)C2)c(CO)c1 (centres unmarked) [Compound 2-17, (5-chloropyridin-2-yl)(3-(2-(hydroxymethyl)-4-(2-isopropylphenoxy)phenyl)pyrrolidin-1-yl)methanone]	10 to 100	–	–	–	–	–	–	57.4	7.93
Cc1cccnc1C(=O)N1CCC(c2ccc(Oc3ccccc3C(C)C)cc2CO)C1 (centres unmarked) [Compound 2-18, (3-(2-(hydroxymethyl)-4-(2-isopropylphenoxy)phenyl)pyrrolidin-1-yl)(3-methylpyridin-2-yl)methanone]	100 to 1000	–	–	–	–	–	–	314	7.81
CCc1ccccc1-c1ccc(C2CCN(C(=O)c3ccccn3)C2)c(CO)c1 (centres unmarked) [Compound 2-27, (3-(2′-ethyl-3-(hydroxymethyl)biphenyl-4-yl)pyrrolidin-1-yl)(pyridin-2-yl)methanone]	10 to 100	–	–	–	–	–	–	73	12.9
CC(C)c1ccccc1Oc1ccc(C2CCN(C(=O)c3ccc(Cl)cn3)C2)c(C(N)=O)c1 (centres unmarked) [Compound 2-32, 2-(1-(5-chloropicolinoyl)pyrrolidin-3-yl)-5-(2-isopropylphenoxy)benzamide]	100 to 1000	–	–	–	–	–	–	677	6.86
Cc1ccc(C(=O)N2CCC(c3ccc(-c4ccccc4C(C)C)cc3CO)C2)nc1 (centres unmarked) [Compound 2-79]	10 to 100	–	–	–	7.38 (≈ 3.06 µg/mL)	–	–	19.8	–
Cc1ccccc1Oc1ccc(C2CCN(Cc3ncccc3Cl)C2)c(CO)c1 (centres unmarked) [Compound 2-86]	100 to 1000	–	–	–	~2.2 (≈ 0.9 µg/mL)	–	–	226	–
